Data from article PMC7031696 (Cell chemical biology, 2019).
pIC50: −log10 of the molar value. Read-outs that look alike come from different tables or passages of the source.

What was measured:
[1] = system: Plasmodium falciparum 3D7-A10 parasites; assay: Stage specificity assay (8-h exposure of synchronized stages, IC50^8h); format: cell-based; conditions: Plasmodium falciparum
[2] = system: asynchronous 3D7-A10 parasite cultures; assay: Standard 72-h exposure asexual blood stage susceptibility assay (IC50^72h); format: cell-based, Plasmodium falciparum; conditions: Plasmodium falciparum, 3D7, 72 h, read-out: Overall (72hr assay) Mean IC50 (IC50^72h)
[3] = system: 3D7-MR4 trophozoite parasite-infected RBCs; assay: Metabolomic profiling (hydrophilic metabolite changes, UHPLC-MS); format: cell-based, Plasmodium falciparum

COc1ccc(C2c3ccc4ccccc4c3Oc3ncn(CCCN(C)C)c(=N)c32)cc1 (centres unmarked) [MMV667491]
pIC50 ([1]; 3D7, read-out: Early rings Mean IC50 (IC50^8h), 8-h exposure 0–8 hr, 3D7-A10, survival at 60 h): 5.65
pIC50 ([1]; 3D7, read-out: Early trophozoites Mean IC50 (IC50^8h), 8-h exposure 16–24 hr, 3D7-A10, survival at 60 h): 6.28
pIC50 ([1]; 3D7, read-out: Late rings Mean IC50 (IC50^8h), 8-h exposure 8–16 hr, 3D7-A10, survival at 60 h): 5.90
pIC50 ([1]; 3D7, read-out: Late trophozoites Mean IC50 (IC50^8h), 8-h exposure 24–32 hr, 3D7-A10, survival at 60 h): 6.14
pIC50 ([1]; 3D7, read-out: Schizonts Mean IC50 (IC50^8h), 8-h exposure 32–40 hr, 3D7-A10, survival at 60 h): 6.07
pIC50 [2]: 6.61
peptide levels (hemoglobin catabolism signature) ([3]; 10 × IC50^72h, 2.5 hr, trophozoites): decreased peptide levels
Log2(fold changes) 3-phosphoglycerate ([3]; metabolite 3-phosphoglycerate, log2 fold change): 0.2589
Log2(fold changes) 4-Pyridoxic acid ([3]; metabolite 4-Pyridoxic acid, log2 fold change): 0.1545
Log2(fold changes) 4-aminobutyrate ([3]; metabolite 4-aminobutyrate, log2 fold change): -0.0143
Log2(fold changes) 4-phosphopantetheine ([3]; metabolite 4-phosphopantetheine, log2 fold change): 0.0000
Log2(fold changes) 4-phosphopantothenate ([3]; metabolite 4-phosphopantothenate, log2 fold change): -0.5959
Log2(fold changes) 5-aminopentanoic acid ([3]; metabolite 5-aminopentanoic acid, log2 fold change): 0.0000
Log2(fold changes) 5-methyl-THF ([3]; metabolite 5-methyl-THF, log2 fold change): 0.0000
Log2(fold changes) 5-phosphoribosyl-1-pyrophosphate ([3]; metabolite 5-phosphoribosyl-1-pyrophosphate, log2 fold change): 0.0000
Log2(fold changes) 6-phospho-D-gluconate ([3]; metabolite 6-phospho-D-gluconate, log2 fold change): -0.3071
Log2(fold change) HVDD ([3]; metabolite HVDD): -3.1004
Log2(fold change) Hydroxyisocaproic acid ([3]; metabolite Hydroxyisocaproic acid): 0.0000
Log2(fold change) IDP ([3]; metabolite IDP): 0.0000
Log2(fold change) IMP ([3]; metabolite IMP): -0.4029
Log2(fold change) Inositol ([3]; metabolite Inositol): 0.0000
Log2(fold change) Isopentyl-PP ([3]; metabolite Isopentyl-PP): -0.4741
Log2(fold change) L-arginino-succinate ([3]; metabolite L-arginino-succinate): 1.0249
Log2(fold change) LD ([3]; metabolite LD): 0.5039
Log2(fold change) Myristoyl/tetradecanoyl-CoA ([3]; metabolite Myristoyl/tetradecanoyl-CoA): 0.0000
Log2(fold change) N-Acetyl-L-alanine ([3]; metabolite N-Acetyl-L-alanine): -0.5066
Log2(fold change) N-acetyl-L-ornithine ([3]; metabolite N-acetyl-L-ornithine): -0.0359
Log2(fold change) N-acetyl-glucosamine-1/6-phosphate ([3]; metabolite N-acetyl-glucosamine-1/6-phosphate): -0.2210
Log2(fold change) N-acetyl-glutamate ([3]; metabolite N-acetyl-glutamate): -0.3035
Log2(fold change) N-acetyl-glutamine ([3]; metabolite N-acetyl-glutamine): 2.2691
Log2(fold change) N-carbamoyl-L-aspartate ([3]; metabolite N-carbamoyl-L-aspartate): -0.9439
Log2(fold change) NAD+ ([3]; metabolite NAD+): -0.1377
Log2(fold change) NADH ([3]; metabolite NADH): 0.2776
Log2(fold change) NADP+ ([3]; metabolite NADP+): 0.1452
Log2(fold change) NADPH ([3]; metabolite NADPH): 0.1884
Log2(fold change) O-acetyl-L-serine ([3]; metabolite O-acetyl-L-serine): -0.0049
Log2(fold change) Octoluse 8/1P ([3]; metabolite Octoluse 8/1P): 0.3908
Log2(fold change) Octoluse Bisphosphate ([3]; metabolite Octoluse Bisphosphate): 1.4853
Log2(fold change) PD ([3]; metabolite PD): -2.5358
Log2(fold change) PE ([3]; metabolite PE): -0.3826
Log2(fold change) PEE ([3]; metabolite PEE): -0.0417
Log2(fold change) PEEK ([3]; metabolite PEEK): 0.3987
Log2(fold change) PVNF ([3]; metabolite PVNF): -3.7257
Log2(fold change) Pyroglutamic acid ([3]; metabolite Pyroglutamic acid): -0.2992
Log2(fold change) Pyrophosphate ([3]; metabolite Pyrophosphate): 0.0000
Log2(fold change) Ribose-5-phosphate ([3]; metabolite Ribose-5-phosphate): -0.2620
Log2(fold change) S-adenosyl-L-homocysteine ([3]; metabolite S-adenosyl-L-homocysteine): 0.0103
Log2(fold change) S-adenosyl-L-methioninamine ([3]; metabolite S-adenosyl-L-methioninamine): -2.2715
Log2(fold change) S-adenosyl-L-methionine ([3]; metabolite S-adenosyl-L-methionine): 0.0000
Log2(fold change) S-methyl-5'-thioadenosine ([3]; metabolite S-methyl-5'-thioadenosine): 1.0471
Log2(fold change) SD ([3]; metabolite SD): -1.2290
Log2(fold change) SDL ([3]; metabolite SDL): 0.0000
Log2(fold change) SID ([3]; metabolite SID): -0.4398
Log2(fold change) Sedoheptulose bisphosphate ([3]; metabolite Sedoheptulose bisphosphate): 1.3696
Log2(fold change) Thiamine pyrophosphate ([3]; metabolite Thiamine pyrophosphate): -0.0845
Log2(fold changes) UDP-D-glucose ([3]; metabolite UDP-D-glucose, log2 fold change): 0.2535
Log2(fold changes) UDP-D-glucuronate ([3]; metabolite UDP-D-glucuronate, log2 fold change): 0.0929
Log2(fold changes) UDP-N-acetyl-glucosamine ([3]; metabolite UDP-N-acetyl-glucosamine, log2 fold change): -0.0110
Log2(fold changes) UDP ([3]; metabolite UDP, log2 fold change): -0.5582
Log2(fold changes) UMP ([3]; metabolite UMP, log2 fold change): -1.0091
Log2(fold changes) UTP ([3]; metabolite UTP, log2 fold change): 0.0000
Log2(fold change) hydroxyphenylpyruvate ([3]; metabolite hydroxyphenylpyruvate): 0.0000
Log2(fold change) hydroxyproline/Aminolevulinate ([3]; metabolite hydroxyproline/Aminolevulinate): -0.0313
Log2(fold change) hypoxanthine ([3]; metabolite hypoxanthine): 0.1226
Log2(fold change) indole ([3]; metabolite indole): 0.0000
Log2(fold change) inosine ([3]; metabolite inosine): 0.0977
Log2(fold change) isoleucine ([3]; metabolite isoleucine): 0.0000
Log2(fold change) lactate ([3]; metabolite lactate): -0.2958
Log2(fold change) leucine ([3]; metabolite leucine): 0.0000
Log2(fold change) lysine ([3]; metabolite lysine): -0.5255
Log2(fold change) malate ([3]; metabolite malate): -0.2587
Log2(fold change) maleic acid ([3]; metabolite maleic acid): -0.3091
Log2(fold change) methionine ([3]; metabolite methionine): 0.3155
Log2(fold change) myo-inositol ([3]; metabolite myo-inositol): -0.2765
Log2(fold change) nicotinamide mononucleotide ([3]; metabolite nicotinamide mononucleotide): -0.3204
Log2(fold change) nicotinate ([3]; metabolite nicotinate): -0.1938
Log2(fold change) ornithine ([3]; metabolite ornithine): 0.1211
Log2(fold change) orotate ([3]; metabolite orotate): -0.0965
Log2(fold change) orotidine-5'-phosphate ([3]; metabolite orotidine-5'-phosphate): -2.6245
Log2(fold change) oxaloacetate ([3]; metabolite oxaloacetate): -0.0776
Log2(fold change) p-aminobenzoate ([3]; metabolite p-aminobenzoate): 0.0000
Log2(fold change) p-hydroxybenzoate ([3]; metabolite p-hydroxybenzoate): 0.0000
Log2(fold change) pantothenate ([3]; metabolite pantothenate): 0.1007
Log2(fold change) phenylalanine ([3]; metabolite phenylalanine): -0.2555
Log2(fold change) phenylpyruvate ([3]; metabolite phenylpyruvate): 0.0000
Log2(fold change) phosphoenolpyruvate ([3]; metabolite phosphoenolpyruvate): 0.7161
Log2(fold change) prephenate ([3]; metabolite prephenate): -0.9019
Log2(fold change) proline ([3]; metabolite proline): -0.2246
Log2(fold change) pyridoxine ([3]; metabolite pyridoxine): -0.1003
Log2(fold change) pyruvate ([3]; metabolite pyruvate): -0.3220
Log2(fold change) riboflavin ([3]; metabolite riboflavin): 0.6538
Log2(fold change) ribose ([3]; metabolite ribose): 0.3285
Log2(fold change) ribose-phosphate ([3]; metabolite ribose-phosphate): -0.4272
Log2(fold change) ribulose-5-phosphate ([3]; metabolite ribulose-5-phosphate): -0.4317
Log2(fold change) serine ([3]; metabolite serine): 0.1307
Log2(fold change) sn-glycerol-3-phosphate ([3]; metabolite sn-glycerol-3-phosphate): 0.0813
Log2(fold change) succinate/Methylmalonic acid ([3]; metabolite succinate/Methylmalonic acid): -0.0916
Log2(fold change) succinyl-CoA/methylmalonyl-CoA ([3]; metabolite succinyl-CoA/methylmalonyl-CoA): 0.0000
Log2(fold change) taurine ([3]; metabolite taurine): 0.1233
Log2(fold change) thiamine ([3]; metabolite thiamine): -0.6378
Log2(fold change) threonine/homoserine ([3]; metabolite threonine/homoserine): -0.0132
Log2(fold change) thymidine ([3]; metabolite thymidine): 0.0000
Log2(fold changes) thymine ([3]; metabolite thymine, log2 fold change): 0.0000
Log2(fold changes) trehalose-6-Phosphate ([3]; metabolite trehalose-6-Phosphate, log2 fold change): 0.0000
Log2(fold changes) tryptophan ([3]; metabolite tryptophan, log2 fold change): -0.6838
Log2(fold changes) tyrosine ([3]; metabolite tyrosine, log2 fold change): 0.0515
Log2(fold changes) uridine ([3]; metabolite uridine, log2 fold change): 0.0000
